Data on 13 compounds can be found in US20200069648A1, “HALOALLYLAMINE PYRAZOLE DERIVATIVE INHIBITORS OF LYSYL OXIDASES AND USES THEREOF” (Pharmaxis Ltd., priority 2017, published 2020).

pIC50: −log10 of the molar value. Where a name gives a salt, the structure may show the parent alone. Some results are limits rather than exact numbers.

The target in assay [1] is T1, Bovine LOX (Bos taurus, UniProt P33072).
T1 sequence (P33072 170-418): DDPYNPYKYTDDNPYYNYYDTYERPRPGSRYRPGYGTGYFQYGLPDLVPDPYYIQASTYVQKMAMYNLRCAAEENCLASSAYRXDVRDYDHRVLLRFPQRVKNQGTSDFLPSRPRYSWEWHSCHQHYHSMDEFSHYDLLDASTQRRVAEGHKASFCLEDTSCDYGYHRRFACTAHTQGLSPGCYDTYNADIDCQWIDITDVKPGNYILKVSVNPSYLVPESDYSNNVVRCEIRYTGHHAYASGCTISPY
The experiment in a line: LOX amine oxidase inhibition, peroxidase-coupled Amplex Red assay. Format: biochemical. Particulars: 30 min preincubation at 37° C., putrescine substrate. From the text: (§1) Method to Determine the Ability of Compounds of the Invention to Inhibit LOX and LOXL1-4 from Different Sources
Lysyl oxidase (LOX) is an extracellular copper dependent enzyme which oxidizes peptidyl lysine and hydroxylysine residues in collagen and lysine residues in elastin to produce peptidyl alpha-aminoadipic-delta-semialdehydes. […] There are five LOX family members; these are LOX, LOXL1, LOXL2, LOXL3 and LOXL4. LOX and LOXL family members can be acquired as recombinant active proteins from commercial sources, or extracted from animal tissues like bovine aorta, tendons, pig skin; or prepared from cell cultures. The inhibitory effects of the compounds of the present invention were tested against the given LOX-LOXL preparation using a high-throughput coupled colorimetric method (Holt A. and Palcic M., A peroxidase-coupled continuous absorbance plate-reader assay for flavin monoamine oxidases, copper-containing amine oxidases and related enzymes. Nat. Protoc. 2006; 1: 2498-2505). The assay was developed using either 384 or 96 well format. Briefly, in a standard 384 well plate assay 25 μL of a dilution of any of the isoenzymes and orthologues in 1.2 M urea, 50 mM sodium borate buffer (pH 8.2) were added into each well in the presence of 1 μM mofegiline and 0.5 mM pargyline (to inhibit SSAO and MAO-B and MAO-A, respectively). […] Twenty five μL of a reaction mixture containing twice the KM concentration of putrescine (Sigma Aldrich, e.g. 20 mM for LOX, or 10 mM for LOXL2 and LOXL3), 120 μM Amplex Red (Sigma Aldrich) and 1.5 U/mL horseradish peroxidase (Sigma Aldrich) prepared in 1.2 M urea, 50 mM sodium borate buffer (pH 8.2) were then added to the corresponding wells. The above volumes were doubled in the case of 96 wells plate. The fluorescence (RFU) was read every 2.5 min for 30 min at a range of temperatures from 37° to 45° C., excitation 565 nm and emission 590 (Optima; BMG labtech). The slope of the kinetics for each well was calculated using MARS data analysis software (BMG labtech) and this value was used to deduce the IC50 value (Dotmatics).

The target in assay [2] is T2, Human LOXL2 (Homo sapiens, UniProt Q9Y4K0).
T2 sequence (Q9Y4K0 26-774): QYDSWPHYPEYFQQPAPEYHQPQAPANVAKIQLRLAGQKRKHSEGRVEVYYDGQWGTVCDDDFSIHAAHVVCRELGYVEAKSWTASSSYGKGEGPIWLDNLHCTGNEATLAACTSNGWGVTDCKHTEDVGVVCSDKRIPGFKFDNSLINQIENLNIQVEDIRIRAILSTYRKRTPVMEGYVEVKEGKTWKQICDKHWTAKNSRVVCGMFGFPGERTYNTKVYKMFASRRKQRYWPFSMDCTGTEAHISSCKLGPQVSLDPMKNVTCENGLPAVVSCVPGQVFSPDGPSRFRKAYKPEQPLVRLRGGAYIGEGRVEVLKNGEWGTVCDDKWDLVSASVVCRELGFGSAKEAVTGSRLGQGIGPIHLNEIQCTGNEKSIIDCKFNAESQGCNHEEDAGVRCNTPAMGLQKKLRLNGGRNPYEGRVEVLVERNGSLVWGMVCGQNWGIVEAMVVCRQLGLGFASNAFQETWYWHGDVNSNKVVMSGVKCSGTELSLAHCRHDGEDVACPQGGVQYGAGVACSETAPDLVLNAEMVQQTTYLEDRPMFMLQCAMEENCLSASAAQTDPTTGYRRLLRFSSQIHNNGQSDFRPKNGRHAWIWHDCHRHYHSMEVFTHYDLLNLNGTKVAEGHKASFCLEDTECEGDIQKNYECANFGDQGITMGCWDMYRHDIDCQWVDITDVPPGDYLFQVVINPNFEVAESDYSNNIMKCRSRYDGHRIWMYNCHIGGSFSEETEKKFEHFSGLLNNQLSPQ
The experiment in a line: LOXL2 amine oxidase inhibition, peroxidase-coupled Amplex Red assay. The class given is biochemical. The note with it: 30 min preincubation at 37° C., putrescine substrate.
Text: as §1
Lysyl oxidase (LOX) is an extracellular copper dependent enzyme which oxidizes peptidyl lysine and hydroxylysine residues in collagen and lysine residues in elastin to produce peptidyl alpha-aminoadipic-delta-semialdehydes. […] There are five LOX family members; these are LOX, LOXL1, LOXL2, LOXL3 and LOXL4. LOX and LOXL family members can be acquired as recombinant active proteins from commercial sources, or extracted from animal tissues like bovine aorta, tendons, pig skin; or prepared from cell cultures. The inhibitory effects of the compounds of the present invention were tested against the given LOX-LOXL preparation using a high-throughput coupled colorimetric method (Holt A. and Palcic M., A peroxidase-coupled continuous absorbance plate-reader assay for flavin monoamine oxidases, copper-containing amine oxidases and related enzymes. Nat. Protoc. 2006; 1: 2498-2505). The assay was developed using either 384 or 96 well format. Briefly, in a standard 384 well plate assay 25 μL of a dilution of any of the isoenzymes and orthologues in 1.2 M urea, 50 mM sodium borate buffer (pH 8.2) were added into each well in the presence of 1 μM mofegiline and 0.5 mM pargyline (to inhibit SSAO and MAO-B and MAO-A, respectively). Test compounds were dissolved in DMSO and tested in a Concentration Response Curve (CRC) with 11 data points, typically in the micromolar or nanomolar range after incubation with the enzyme for 30 min at 37° C. Twenty five μL of a reaction mixture containing twice the KM concentration of putrescine (Sigma Aldrich, e.g. 20 mM for LOX, or 10 mM for LOXL2 and LOXL3), 120 μM Amplex Red (Sigma Aldrich) and 1.5 U/mL horseradish peroxidase (Sigma Aldrich) prepared in 1.2 M urea, 50 mM sodium borate buffer (pH 8.2) were then added to the corresponding wells. The above volumes were doubled in the case of 96 wells plate. The fluorescence (RFU) was read every 2.5 min for 30 min at a range of temperatures from 37° to 45° C., excitation 565 nm and emission 590 (Optima; BMG labtech). The slope of the kinetics for each well was calculated using MARS data analysis software (BMG labtech) and this value was used to deduce the IC50 value (Dotmatics).

For orientation: pIC50 means −log10 of the IC50, conventionally taken in molar units. Consider `Cc1nn(C/C(F)=C/CN)c(C)c1Oc1ccc(S(=O)(=O)N(C)C)c(Cl)c1` [Compound 40, (Z)-4-((1-(4-amino-2-fluorobut-2-en-1-yl)-3,5-dimethyl-1H-pyrazol-4-yl)oxy)-2-chloro-N,N-dimethylbenzenesulfonamide], for which the pIC50 in assay [1] is above 5.00; in assay [2], above 6.00.
Take `Cc1nn(C/C(F)=C/CN)c(C)c1Cc1ccc(NS(C)(=O)=O)cc1` [Compound 48, (Z)—N-(4-((1-(4-amino-2-fluorobut-2-en-1-yl)-3,5-dimethyl-1H-pyrazol-4-yl)methyl)phenyl)methane-sulfonamide hydrochloride]: the pIC50 is above 5.00 in assay [1] and above 6.00 in assay [2].
On to `Cc1nn(C/C(F)=C/CN)c(C(F)(F)F)c1Cc1ccc(S(=O)(=O)N(C)C)c(Cl)c1` [Compound 56, (Z)-4-((1-(4-amino-2-fluorobut-2-en-1-yl)-3-methyl-5-(trifluoromethyl)-1H-pyrazol-4-yl)methyl)-2-chloro-N,N-dimethylbenzenesulfonamide hydrochloride], for which the pIC50 in assay [1] is above 5.00; in assay [2], above 6.00.
The corresponding values for `Cc1c(-c2cccc(S(=O)(=O)N(C)C)c2)c(Cl)nn1C/C(F)=C/CN` [Compound 34, (Z)-3-(1-(4-amino-2-fluorobut-2-en-1-yl)-3-chloro-5-methyl-1H-pyrazol-4-yl)-N,N-dimethylbenzenesulfonamide hydrochloride] are above 5.00 and above 6.00.
`CC(C)c1nn(C/C(F)=C/CN)c(C(C)O)c1Cc1ccc(S(=O)(=O)N(C)C)cc1Cl` (centres unmarked) [Compound 58, (Z)-4-((1-(4-amino-2-fluorobut-2-en-1-yl)-5-(1-hydroxyethyl)-3-isopropyl-1H-pyrazol-4-yl)methyl)-3-chloro-N,N-dimethylbenzenesulfonamide hydrochloride]: the pIC50 in assay [1] is below 5.00; in assay [2], above 6.00.
Turning to `Cc1nn(C/C(F)=C/CN)c(C)c1Cc1ccc(S(=O)(=O)C(C)C)c(Cl)c1` [Compound 49, (Z)-4-(4-(3-chloro-4-(isopropylsulfonyl)benzyl)-3,5-dimethyl-1H-pyrazol-1-yl)-3-fluorobut-2-en-1-amine hydrochloride], the pIC50 in assay [1] is above 5.00; in assay [2] it was above 6.00.
On the same counts, the results for `CS(=O)(=O)c1cccc(-c2cnn(C/C(F)=C/CN)c2)c1` [Compound 67, (Z)-3-fluoro-4-(4-(3-(methylsulfonyl)phenyl)-1H-pyrazol-1-yl)but-2-en-1-amine hydrochloride] are above 5.00 and above 6.00.
On the same counts, the results for `Cc1c(Cc2ccc(S(=O)(=O)N(C)C)c(Cl)c2)c(C(C)O)nn1C/C(F)=C/CN` (centres unmarked) [Compound 37, (Z)-4-((1-(4-amino-2-fluorobut-2-en-1-yl)-3-(1-hydroxyethyl)-5-methyl-1H-pyrazol-4-yl)methyl)-2-chloro-N,N-dimethylbenzenesulfonamide] are above 5.00 and above 6.00.
In the case of `Cc1nn(C/C(F)=C/CN)c(Cl)c1Cc1ccc(S(=O)(=O)N(C)C)c(Cl)c1` [Compound 41, (Z)-4-((1-(4-amino-2-fluorobut-2-en-1-yl)-5-chloro-3-methyl-1H-pyrazol-4-yl)methyl)-2-chloro-N,N-dimethylbenzenesulfonamide], the results for the pIC50 in assay [1] and in assay [2] were above 5.00 and above 6.00, respectively.
Take `Cc1nn(C/C(F)=C/CN)c(C)c1-c1cccc(S(=O)(=O)N(C)C)c1` [Compound 33, (Z)-3-(1-(4-amino-2-fluorobut-2-en-1-yl)-3,5-dimethyl-1H-pyrazol-4-yl)-N,N-dimethylbenzenesulfonamide]: the values for the pIC50 in assay [1] and in assay [2] were above 5.00 and above 6.00, respectively.
For `Cc1nn(C/C(F)=C/CN)c(C)c1Cc1ccc(S(N)(=O)=O)c(Cl)c1` [Compound 51, (Z)-4-((1-(4-amino-2-fluorobut-2-en-1-yl)-3,5-dimethyl-1H-pyrazol-4-yl)methyl)-2-chlorobenzenesulfonamide hydrochloride], the pIC50 in assay [1] is above 5.00; in assay [2], above 6.00.
`CNS(=O)(=O)c1ccc(Cc2c(C)nn(C/C(F)=C/CN)c2C)cc1OC(F)(F)F` [Compound 45, (Z)-4-((1-(4-amino-2-fluorobut-2-en-1-yl)-3,5-dimethyl-1H-pyrazol-4-yl)methyl)-N-methyl-2-(trifluoromethoxy)benzenesulfonamide hydrochloride]: the pIC50 in assay [1] is above 5.00; in assay [2], above 6.00.
For `Cc1nn(Cc2ccc(S(=O)(=O)N(C)C)c(Cl)c2)c(C)c1C/C(F)=C/CN` [Compound 46, (Z)-4-((4-(4-amino-2-fluorobut-2-en-1-yl)-3,5-dimethyl-1H-pyrazol-1-yl)methyl)-2-chloro-N,N-dimethylbenzenesulfonamide hydrochloride], the pIC50 is above 5.00 in assay [1] and above 6.00 in assay [2].
